Data published in ChEMBL document CHEMBL5104169, “Design and synthesis of mogrol derivatives modified on a ring with anti-inflammatory and anti-proliferative activities” (Bioorg Med Chem Lett, 2022).
Activity calls are given as the source filed them. No cut-off for these calls is given here.

Tests used:
[1] = system: A549; assay: Antiproliferative activity against human A549 cells; type: functional, cell-based
[2] = system: NCI-H1975; assay: Antiproliferative activity against human NCI-H1975 cells; type: functional, cell-based
[3] = system: NCI-H460; assay: Antiproliferative activity against human NCI-H460 cells; type: functional, cell-based
[4] = system: NCI-H1299; assay: Antiproliferative activity against human NCI-H1299 cells; type: functional, cell-based
[5] = Cytotoxicity against mouse RAW264.7 cells assessed as cell viability at 10 uM measured after 24 hrs by CCK-8 assay relative to control; type: toxicity, cell-based; conditions: read-out: Activity
[6] = system: RAW264.7; assay: Cytotoxicity against mouse RAW264.7 cells at 10 uM measured after 24 hrs by CCK-8 assay relative to control; type: toxicity, cell-based; conditions: raw264.7, 24 h
[7] = system: RAW264.7; assay: Inhibition of LPS-induced NO production in mouse RAW264.7 cells at 10 uM relative to control; type: functional
[8] = system: RAW264.7; assay: Inhibition of LPS-induced NO production in mouse RAW264.7 cells at 5 uM relative to control; type: functional
[9] = system: RAW264.7; assay: Antiinflammatory activity against mouse RAW264.7 cells assessed as decrease in LPS-induced TNF-alpha level at 10 uM measured by ELISA assay; type: functional, cell-based
[10] = system: RAW264.7; assay: Antiinflammatory activity against LPS-induced mouse RAW264.7 cells assessed as decrease in iNOS expression at 2.5 to 10 uM and measured by Western blot analysis; type: functional, cell-based; conditions: dose 2.5-10 µM
[11] = system: RAW264.7; assay: Antiinflammatory activity against mouse RAW264.7 cells assessed as decrease in LPS-induced IL-6 level at 10 uM measured by ELISA assay; type: functional, cell-based
[12] = system: RAW264.7; assay: Inhibition of LPS-induced NO production in mouse RAW264.7 cells; type: functional, cell-based
[13] = system: RAW264.7; assay: Antiinflammatory activity against LPS-induced mouse RAW264.7 cells assessed as decrease in phosphorylation levels of IkBalpha at 2.5 to 10 uM and measured by Western blot analysis; type: functional, cell-based; conditions: dose 2.5-10 µM
[14] = system: RAW264.7; assay: Antiinflammatory activity against LPS-induced mouse RAW264.7 cells assessed as decrease in phosphorylation levels of p65 at 2.5 to 10 uM and measured by Western blot analysis; type: functional, cell-based; conditions: dose 2.5-10 µM

| SMILES | IC50 [1] [µM] | IC50 [2] [µM] | IC50 [3] [µM] | IC50 [4] [µM] | viability at 24 h, 10 µM [5] [%] | Activity [6] | inhibition at 10 µM [7] [%] | inhibition at 5 µM [8] [%] | Activity [9] | Activity [10] | Activity [11] | IC50 [12] [µM] | Activity [13] | Activity [14] |
| --- | --- | --- | --- | --- | --- | --- | --- | --- | --- | --- | --- | --- | --- | --- |
| C[C@H](CC[C@@H](O)C(C)(C)O)[C@H]1CC[C@@]2(C)[C@@H]3CC=C4[C@@H](Cc5c([nH]c6ccccc56)C4(C)C)[C@]3(C)[C@H](O)C[C@]12C | 16.4 | 23.2 | 18.3 | 22.4 | > 95 |  |  |  |  |  |  |  |  |  |
| C[C@H](CC[C@@H](O)C(C)(C)O)[C@H]1CC[C@@]2(C)[C@@H]3CC=C4[C@@H](Cc5c([nH]c6ccc(Cl)cc56)C4(C)C)[C@]3(C)[C@H](O)C[C@]12C | > 30 | 18.5 | 23.1 | 19.1 | > 95 |  |  |  |  |  |  |  |  |  |
| C[C@H](CC[C@@H](O)C(C)(C)O)[C@H]1CC[C@@]2(C)[C@@H]3CC=C4[C@@H](Cc5cc6cc(Br)ccc6nc5C4(C)C)[C@]3(C)[C@H](O)C[C@]12C | 8.99 | 25.7 | > 30 | 27 |  | Toxic |  |  |  |  |  |  |  |  |
| C[C@H](CC[C@@H](O)C(C)(C)O)[C@H]1CC[C@@]2(C)[C@@H]3CC=C4[C@@H](C/C(=C\c5cccnc5)C(=O)C4(C)C)[C@]3(C)[C@H](O)C[C@]12C | 11.1 | 13.4 | 11.1 | 14.6 |  | Toxic |  |  |  |  |  |  |  |  |
| CC(C)c1ccc2[nH]c3c(c2c1)C[C@@H]1C(=CC[C@@H]2[C@@]1(C)C(=O)C[C@]1(C)[C@@H]([C@H](C)CC[C@@H](O)C(C)(C)O)CC[C@@]21C)C3(C)C | 22.2 | > 30 | > 30 | > 30 |  |  | 57.4 |  |  |  |  |  |  |  |
| CC(C)c1ccc2[nH]c3c(c2c1)C[C@@H]1C(=CC[C@@H]2[C@@]1(C)[C@H](O)C[C@]1(C)[C@@H]([C@H](C)CC[C@@H](O)C(C)(C)O)CC[C@@]21C)C3(C)C | 25.4 | > 30 | 25 | > 30 | > 95 |  |  |  |  |  |  |  |  |  |
| Cc1ccc2[nH]c3c(c2c1)C[C@@H]1C(=CC[C@@H]2[C@@]1(C)[C@H](O)C[C@]1(C)[C@@H]([C@H](C)CC[C@@H](O)C(C)(C)O)CC[C@@]21C)C3(C)C | 22.6 | > 30 | 31.5 | > 30 |  |  | 45.1 |  |  |  |  |  |  |  |
| C[C@H](CC[C@@H](O)C(C)(C)O)[C@H]1CC[C@@]2(C)[C@@H]3CC=C4[C@@H](C/C(=C\c5ccccc5)C(=O)C4(C)C)[C@]3(C)[C@H](O)C[C@]12C | 10.7 | 13.6 | 16 | 12 |  | Toxic |  |  |  |  |  |  |  |  |
| Cc1ccc2[nH]c3c(c2c1)C[C@@H]1C(=CC[C@@H]2[C@@]1(C)C(=O)C[C@]1(C)[C@@H]([C@H](C)CC[C@@H](O)C(C)(C)O)CC[C@@]21C)C3(C)C | 16.5 | > 30 | > 30 | 18.7 |  |  | 56.6 |  |  |  |  |  |  |  |
| C[C@H](CC[C@@H](O)C(C)(C)O)[C@H]1CC[C@@]2(C)[C@@H]3CC=C4[C@@H](Cc5cc6ccncc6nc5C4(C)C)[C@]3(C)[C@H](O)C[C@]12C | > 30 | > 30 | 23.4 | > 30 |  | Toxic |  |  |  |  |  |  |  |  |
| C[C@H](CC[C@@H](O)C(C)(C)O)[C@H]1CC[C@@]2(C)[C@@H]3CC=C4[C@@H](Cc5cc6cc(F)ccc6nc5C4(C)C)[C@]3(C)[C@H](O)C[C@]12C | 7.55 | 14.7 | 16.3 | 11.7 |  | Toxic |  |  |  |  |  |  |  |  |
| C=C1C(=O)O[C@@H]2C3O[C@]3(C)CC/C=C(\C)CC[C@@H]12 (stereo not given in full) |  |  |  |  |  |  |  | 91.9 |  |  |  |  |  |  |
| C[C@H](CC[C@@H](O)C(C)(C)O)[C@H]1CC[C@@]2(C)[C@@H]3CC=C4[C@@H](CC[C@H](O)C4(C)C)[C@]3(C)[C@H](O)C[C@]12C [MOGROL] | 28.6 | 87.1 | > 100 | > 100 |  |  | 17.4 |  |  |  |  |  |  |  |
| C[C@H](CC[C@@H](O)C(C)(C)O)[C@H]1CC[C@@]2(C)[C@@H]3CC=C4[C@@H](C/C(=C\c5ccncc5)C(=O)C4(C)C)[C@]3(C)[C@H](O)C[C@]12C | 11.6 | 12.7 | 15 | 13.3 |  | Toxic |  |  |  |  |  |  |  |  |
| C[C@H](CC[C@@H](O)C(C)(C)O)[C@H]1CC[C@@]2(C)[C@@H]3CC=C4[C@@H](Cc5cc6ccccc6nc5C4(C)C)[C@]3(C)[C@H](O)C[C@]12C | 17.2 | 18.7 | 18.9 | 20 |  | Toxic |  |  |  |  |  |  |  |  |
| Cc1ccc(/C=C2\C[C@@H]3C(=CC[C@@H]4[C@@]3(C)C(=O)C[C@]3(C)[C@@H]([C@H](C)CC[C@@H](O)C(C)(C)O)CC[C@@]43C)C(C)(C)C2=O)cc1 | 22.1 | 19.1 | 24.3 | > 30 |  | Toxic |  |  |  |  |  |  |  |  |
| COc1ccc2[nH]c3c(c2c1)C[C@@H]1C(=CC[C@@H]2[C@@]1(C)C(=O)C[C@]1(C)[C@@H]([C@H](C)CC[C@@H](O)C(C)(C)O)CC[C@@]21C)C3(C)C | 21.9 | 19 | > 30 | > 30 |  |  | 87.6 |  | Active | Active | Active | 5.05 | Active | Active |
| C[C@H](CC[C@@H](O)C(C)(C)O)[C@H]1CC[C@@]2(C)[C@@H]3CC=C4[C@@H](C/C(=C\c5ccc(Cl)cc5)C(=O)C4(C)C)[C@]3(C)[C@H](O)C[C@]12C | 8.26 | 13.6 | 9.94 | > 30 |  | Toxic |  |  |  |  |  |  |  |  |
| C[C@H](CC[C@@H](O)C(C)(C)O)[C@H]1CC[C@@]2(C)[C@@H]3CC=C4[C@@H](Cc5c([nH]c6ccccc56)C4(C)C)[C@]3(C)C(=O)C[C@]12C | 27.9 | > 30 | > 30 | > 30 |  |  | 78.2 |  |  |  |  |  |  |  |
| C[C@H](CC[C@@H](O)C(C)(C)O)[C@H]1CC[C@@]2(C)[C@@H]3CC=C4[C@@H](Cc5cc6cc(Cl)ccc6nc5C4(C)C)[C@]3(C)[C@H](O)C[C@]12C | 8.22 | 16.4 | 19 | 13.2 |  | Toxic |  |  |  |  |  |  |  |  |
| C[C@H](CC[C@@H](O)C(C)(C)O)[C@H]1CC[C@@]2(C)[C@@H]3CC=C4[C@@H](C/C(=C\c5ccccc5)C(=O)C4(C)C)[C@]3(C)C(=O)C[C@]12C | 16.1 | > 30 | 32.5 | > 30 |  | Toxic |  |  |  |  |  |  |  |  |
| Cc1ccc(/C=C2\C[C@@H]3C(=CC[C@@H]4[C@@]3(C)[C@H](O)C[C@]3(C)[C@@H]([C@H](C)CC[C@@H](O)C(C)(C)O)CC[C@@]43C)C(C)(C)C2=O)cc1 | 9.91 | 15.1 | 13.7 | > 30 |  | Toxic |  |  |  |  |  |  |  |  |
| O=c1[nH]cc(F)c(=O)[nH]1 [FLUOROURACIL] | 1.65 | 1.98 |  | 3.53 |  |  |  |  |  |  |  |  |  |  |
| C[C@H](CC[C@@H](O)C(C)(C)O)[C@H]1CC[C@@]2(C)[C@@H]3CC=C4[C@@H](C/C(=C\c5cccnc5)C(=O)C4(C)C)[C@]3(C)C(=O)C[C@]12C | 12.6 | 12.7 | 16.5 | 16.4 |  | Toxic |  |  |  |  |  |  |  |  |
